# From US20250340532A1, “HETEROCYCLIC COMPOUND CCR4 INHIBITOR AND USER THEREOF” (Xizang Haisco Pharmaceutical Co., Ltd., priority 2022, published 2025)
# Molecular target: T1, CCR4 (Homo sapiens, UniProt P51679)
# T1 construct: expressed in transfected cells; host or cells: HEK293
# T1 sequence (P51679 1-360): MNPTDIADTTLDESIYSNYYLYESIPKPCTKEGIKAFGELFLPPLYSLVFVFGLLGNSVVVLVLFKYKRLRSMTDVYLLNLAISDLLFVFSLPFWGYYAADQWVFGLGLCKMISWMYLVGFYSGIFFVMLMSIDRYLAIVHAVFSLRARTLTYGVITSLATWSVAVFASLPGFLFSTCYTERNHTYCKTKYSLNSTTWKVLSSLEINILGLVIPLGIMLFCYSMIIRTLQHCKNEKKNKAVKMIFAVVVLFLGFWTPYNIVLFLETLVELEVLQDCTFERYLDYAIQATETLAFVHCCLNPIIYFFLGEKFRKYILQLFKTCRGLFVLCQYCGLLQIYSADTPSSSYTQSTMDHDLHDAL
# Assay: Calcium flow detected by FLIPR
# Type: cell-based
# Settings: CCR4/HEK293 cells, agonist CCL17, Fluo-4 calcium signal
# Protocol: CCR4/HEK293 cells were added to a 384-well cell culture plate (Greiner #781946) at a rate of 20 μL/well (20,000 cells/well) and incubated overnight in a 37° C., 5% CO2 incubator (Incubator, Thermo). On the second day, the 384-well cell culture plate was taken out of the incubator and the culture medium was removed; Then, 20 μL of detection buffer and 20 μL of 2X Fluo-4 Direct™ (Invitrogen, Cat #F10471) were added. Then, compounds were added at 10 μL/well (compounds were subjected to 4-fold serial dilution, and the highest detection concentration was 10 μM), and the cells were incubated in a 37° C., 5% CO2 incubator for 50 min, and then incubated at room temperature for 10 min. The 384-well culture plate was placed in FLIPR ([…]), 10 μL of 6X agonist CCL17 was added by using an automatic loader, and the fluorescence signal was read immediately. The mean and standard error (Mean±SEM) were statistically analyzed using Graphpad Prism software, and the IC50 value was calculated.
# The experimental results are shown in Table 3, where A represents IC50<100 nm; B represents 100 nM≤IC50<500 nM, and C represents 500 nM≤IC50.
row,Structure (SMILES),IC50
1,Cc1nc(N[C@H](C)c2ccc(Cl)cc2Cl)cc(N2CC([C@H]3CCCN([C@H]4C[C@](C)(C(=O)O)C4)C3)C2)n1 [Compound 26],< 100 nM
2,"CC(Nc1nc(N2CC(C3CN(C4CC(C)(C(=O)O)C4)CCO3)C2)ncc1Br)c1ccc(Cl)cc1Cl (single isomer, unassigned) [Compound 37 isomer 2]",100 to 500 nM
3,Cc1nc(N2CC(C3CN(CC(C)(C)O)CCO3)C2)nc(N[C@H](C)c2ccc(Cl)cc2Cl)c1Cl (stereo partly shown) [Compound 35],< 100 nM
4,C[C@@H](Nc1cc(N2CC([C@H]3CCCN([C@H]4C[C@](C)(C(=O)O)C4)C3)C2)ncn1)c1ccc(Cl)cc1Cl [Compound 15],< 100 nM
5,Cc1nc(N2CC([C@H]3CCCN([C@H]4C[C@](C)(C(=O)O)C4)C3)C2)nc(NC(C)c2cc3c(cc2Cl)CC3)c1Cl (stereo partly shown) [Compound 13],100 to 500 nM
6,C[C@H](c1ccc(Cl)cc1Cl)n1nc(C#N)c2ncc(N3CC(C4CN(CCO)CCO4)C3)nc21 (stereo partly shown) [Compound 19],< 100 nM
7,"Cc1nc(N2CC(C3CCCN(C4CC(C)(C(=O)O)C4)C3)C2)nc(NC(C)c2cc(Cl)sc2Cl)c1Cl (single isomer, unassigned) [Compound 10 isomer 1]",100 to 500 nM
8,"Cc1nc(N2CC(C3CCCC(N4CC(C)(C(=O)O)C4)C3)C2)nc(NC(C)c2ccc(Cl)cc2Cl)c1Cl (single isomer, unassigned) [Compound 8 isomer 1]",100 to 500 nM
9,C#Cc1ccc(C(C)Nc2nc(N3CC([C@H]4CCCN(CCO)C4)C3)nc(C)c2Cl)c(Cl)c1 (stereo partly shown) [Compound 38],100 to 500 nM
10,"Cc1nc(C2CN(C3CCCN(C4CC(C)(C(=O)O)C4)C3)C2)nc(NC(C)c2ccc(Cl)cc2Cl)c1Cl (single isomer, unassigned) [Compound 20 isomer 3]",< 100 nM
11,C#Cc1ccc(C(C)Nc2cc(N3CC([C@H]4CCCN([C@H]5C[C@](C)(C(=O)O)C5)C4)C3)ncn2)c(Cl)c1 (stereo partly shown) [Compound 23],< 100 nM

# More lines, now with the values ahead:
row,IC50,Structure (SMILES)
1,100 to 500 nM,"Cc1nc(N2CC(C3CN(C4CC(c5nn[nH]n5)C4)CCO3)C2)nc(NC(C)c2ccc(Cl)cc2Cl)c1Cl (single isomer, unassigned) [Compound 79 isomer 2]"
2,< 100 nM,"CC(Nc1nc(N2CC(C3CN(C4CC(C)(C(=O)O)C4)CCO3)C2)ncc1Cl)c1ccc(Cl)cc1Cl (single isomer, unassigned) [Compound 42 isomer 1]"
3,< 100 nM,"C[C@@H](Nc1cc(N2CCC(C3CN(C4CC(C)(C(=O)O)C4)CCO3)CC2)nc2ccnn12)c1ccc(Cl)cc1Cl (single isomer, unassigned) [Compound 111]"
4,< 100 nM,"C[C@@H](Nc1nc(N2CC(C3CN(C4CC(C)(C(=O)O)C4)CCO3)C2)nc2ccccc12)c1ccc(Cl)cc1Cl (single isomer, unassigned) [Compound 67 isomer 1]"
5,100 to 500 nM,"CC(Nc1nc(N2CC(C3CN(C4CC(C)(C(=O)O)C4)CCO3)C2)c2ccccc2n1)c1ccc(Cl)cc1Cl (single isomer, unassigned) [Compound 60 isomer 1]"
6,100 to 500 nM,Cc1nc(N[C@H](C)c2ccc(Cl)cc2Cl)nc(N2CC([C@H]3CCCN([C@H]4C[C@](C)(C(=O)O)C4)C3)C2)c1Cl [Compound 56]
7,< 100 nM,C[C@@H](Nc1nc(N2CC([C@H]3CCCN([C@H]4C[C@](C)(C(=O)O)C4)C3)C2)c2ccccc2n1)c1ccc(Cl)cc1Cl [Compound 40]
8,100 to 500 nM,Cc1nc(N2CC(C3CN(C4CC(C)(C#N)C4)CCO3)C2)nc(N[C@H](C)c2ccc(Cl)cc2Cl)c1Cl (stereo partly shown) [Compound 70]
9,< 100 nM,"C[C@@H](Nc1nc(N2CC(C3CN(C4CC(C)(C(=O)O)C4)CCO3)C2)nc(C(F)F)c1Cl)c1ccc(Cl)cc1Cl (single isomer, unassigned) [Compound 77 isomer 2]"
10,100 to 500 nM,"CC(Nc1cc(C#CC2CCCN(C3CC(C)(C(=O)O)C3)C2)ccc1Cl)c1ccc(Cl)cc1Cl (single isomer, unassigned) [Compound 75 isomer 2]"
11,100 to 500 nM,"CC(Nc1nc(N2CC(F)(C3CN(C4CC(C)(C(=O)O)C4)CCO3)C2)nc(C(F)F)c1Cl)c1ccc(Cl)cc1Cl (single isomer, unassigned) [Compound 66 isomer 3]"
